Laboratory results taken from PubChem BioAssay (NCI).
Values joined by “and” are separate entries in the source; they are usually repeats but may differ in a detail not shown here. Identical values can stand only once.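 Compound exposure: 48 hours, 5 concentrations, 96-well plates. GI50 = concentration required for 50% inhibition of growth. At the TGI there is no net growth.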

Tests used:
Assay in all cases: NCI anticancer screen, dose series, 48 h
MDA-MB-231 breast = system: MDA-MB-231 breast
SK-MEL-5 melanoma = system: SK-MEL-5 melanoma
HCC-2998 colon = system: HCC-2998 colon
SK-OV-3 ovarian = system: SK-OV-3 ovarian
UACC-62 melanoma = system: UACC-62 melanoma
A549 NSCLC = system: A549 NSCLC
SK-MEL-28 melanoma = system: SK-MEL-28 melanoma
M14 melanoma = system: M14 melanoma
RXF 393 renal = system: RXF 393 renal
OVCAR-3 ovarian = system: OVCAR-3 ovarian

SMILES	GI50 (MDA-MB-231 breast)	TGI (MDA-MB-231 breast)	GI50 (SK-MEL-5 melanoma)	TGI (SK-MEL-5 melanoma)	GI50 (HCC-2998 colon)	TGI (HCC-2998 colon)	GI50 (SK-OV-3 ovarian)	TGI (SK-OV-3 ovarian)	GI50 (UACC-62 melanoma)	TGI (UACC-62 melanoma)	GI50 (A549 NSCLC)	TGI (A549 NSCLC)	GI50 (SK-MEL-28 melanoma)	TGI (SK-MEL-28 melanoma)	GI50 (M14 melanoma)	TGI (M14 melanoma)	TGI (RXF 393 renal)	TGI (OVCAR-3 ovarian)	GI50 (RXF 393 renal)	GI50 (OVCAR-3 ovarian)
CO/N=C(/C)c1cccc(Nc2cc(-c3ccccc3)nc3ccc(OC)cc23)c1	3.49 µM	17.8 µM	2.63 µM	8.13 µM	4.97 µM	20.8 µM	29.2 µM	72 µM	4.33 µM	17.7 µM	23.1 µM	53.9 µM	28.6 µM	66.8 µM	6.92 µM	25.3 µM	–	–	–	–
CC(=O)OCCOCNC(=S)N/N=C/c1ccc(Br)s1	–	–	–	> 100 µM	–	> 100 µM	–	> 100 µM	–	> 100 µM	–	> 100 µM	–	> 100 µM	–	> 100 µM	> 100 µM	> 100 µM	–	–
CN1CCN(c2ccc(Nc3ncc4cc(C#N)c(=O)n(C5CCCC5)c4n3)cc2)CC1	–	–	3.17 µM	> 100 µM	2.8 µM	> 100 µM	4.41 µM	> 100 µM	4 µM	> 100 µM	2.05 µM	> 100 µM	3.54 µM	> 100 µM	1.39 µM	> 100 µM	2.23 µM	> 24.2 µM	0.477 µM	2.94 µM
Cc1ncc([N+](=O)[O-])n1CCNS(=O)(=O)CCCn1ncnc1[N+](=O)[O-]	–	> 100 µM	–	> 100 µM	–	–	–	> 100 µM	–	> 100 µM	–	> 100 µM	–	> 100 µM	–	> 100 µM	> 100 µM	> 100 µM	–	–
O=C(OCC(OC(=O)c1ccccc1)C(OC(=O)c1ccccc1)C(OC(=O)c1ccccc1)c1cnn(-c2ccccc2)n1)c1ccccc1 (stereo not given)	–	–	–	> 100 µM	–	> 100 µM	–	> 100 µM	–	> 100 µM	–	> 100 µM	–	> 100 µM	–	> 100 µM	> 100 µM	> 100 µM	–	–
CCOc1ccccc1NC(=O)C(C#N)C1=C(Cl)C(=O)c2ccccc2C1=O (stereo not given)	–	–	–	2.86 µM and 3.13 µM	12.3 µM	3.15 µM and 25.6 µM	–	41.5 µM	–	3.24 µM and 3.36 µM	–	3.74 µM	–	3.62 µM	–	3.05 µM and 3.14 µM	3.43 µM and 3.25 µM	2.97 µM and 5.04 µM	–	2 µM
O=C(O)C12CC3(C(=O)O)CC(C(=O)O)(CC(C(=O)O)(C1)C3=O)C2=O	–	> 100 µM	–	> 100 µM	–	–	–	> 100 µM	–	> 100 µM	–	> 100 µM	–	> 100 µM	–	> 100 µM	> 100 µM	> 100 µM	–	–
C/C(CCn1[nH]c(=O)ccc1=O)=N\OCCCc1ccccc1	–	–	–	> 100 µM	–	> 100 µM	–	–	–	> 100 µM	–	> 100 µM	–	> 100 µM	–	> 100 µM	> 100 µM	> 100 µM	–	–
S=C1CC(c2ccccc2)Sc2ccc(Cl)cc2N1 (stereo not given)	–	> 100 µM	–	> 100 µM	–	–	–	> 100 µM	–	> 100 µM	–	> 100 µM	–	> 100 µM	–	> 100 µM	25.7 µM	> 100 µM	–	–
O=S1(=O)OCCOS(=O)(=O)C1Cl	–	–	–	> 100 µM	–	> 100 µM	–	> 100 µM	–	> 100 µM	–	> 100 µM	–	> 100 µM	–	> 100 µM	–	> 100 µM	–	–
N#CC(C(=O)CCC(=O)Nc1cccc(C(F)(F)F)c1)c1ccc(Cl)cc1 (stereo not given)	–	–	–	> 100 µM	–	> 100 µM	–	> 100 µM	–	> 100 µM	–	> 100 µM	–	–	–	> 100 µM	–	> 100 µM	–	–
c1ccc(CSc2nc3ccccc3nc2-c2cccs2)cc1	–	–	–	> 100 µM	–	> 100 µM	–	> 100 µM	–	–	–	> 100 µM	–	> 100 µM	–	> 100 µM	–	> 100 µM	–	–
C=C1CC[C@@H](C(C)C)C[C@@H]2[C@H]([C@H](O)C[C@]2(C)O)[C@@]2(C)CC[C@@H]1O2	13.9 µM	28 µM	14.8 µM	28.3 µM	13.9 µM	26.9 µM	20.2 µM	38 µM	–	–	17 µM	32.7 µM	–	–	19.3 µM	33.4 µM	34.1 µM	29.5 µM	19.6 µM	14.8 µM
CC(C)(C)OC(=O)N1N=NC2C1C1CC(OCc3ccccc3)(OCc3ccccc3)C2O1 (stereo not given)	–	–	–	32.6 µM	–	> 100 µM	–	> 100 µM	–	> 100 µM	–	> 100 µM	–	91.3 µM	–	> 100 µM	> 100 µM	> 100 µM	–	–
Oc1ccc(Br)cc1C=Nc1ccc(N=Cc2cc(Br)ccc2O)cc1	–	–	–	> 100 µM	–	> 100 µM	–	> 100 µM	–	–	–	> 100 µM	–	–	–	> 100 µM	> 100 µM	–	–	–
O=C(O)CN(c1ccccc1)S(=O)(=O)c1ccc([N+](=O)[O-])cc1	–	–	–	> 100 µM	–	–	–	> 100 µM	–	> 100 µM	–	> 100 µM	–	–	–	> 100 µM	> 100 µM	> 100 µM	–	–
Cc1cc(C(C)(C)C)cc(Cc2cc(C(C)(C)C)cc(Cc3cc(C(C)(C)C)cc(C)c3O)c2O)c1O	–	–	–	21.6 µM	–	–	–	27.9 µM	–	18.9 µM	–	18.7 µM	–	–	–	20.5 µM	6.26 µM	16.5 µM	–	–
O=c1c2ccccc2nc(-c2ccccc2)n1NC(=S)Nc1ccccc1	–	–	–	> 100 µM	–	–	–	> 100 µM	–	> 100 µM	–	> 100 µM	–	> 100 µM	–	> 100 µM	> 100 µM	–	–	–
OCC(O)CNc1ccnc2cc(Cl)ccc12 (stereo not given)	–	–	–	> 100 µM	–	> 100 µM	–	> 100 µM	–	> 100 µM	–	> 100 µM	–	> 100 µM	–	> 100 µM	> 100 µM	> 100 µM	–	–
CCOC(=O)Cn1c(=O)n(C)c(=O)c2c1ncn2Cc1ccccc1	–	–	–	> 100 µM	–	–	–	> 100 µM	–	> 100 µM	–	> 100 µM	–	> 100 µM	–	> 100 µM	–	> 100 µM	–	–
COC1=C(Br)C(=O)c2nc(C)ccc2C1=O	–	–	–	32 µM	–	32.2 µM	–	33.6 µM	–	33.2 µM	–	38.5 µM	–	33.1 µM	–	28.4 µM	24.5 µM	19.5 µM	–	–
CC1CN1c1c(C(=O)/C=C/c2ccc(Cl)cc2)c(-c2ccccc2)nn(C)c1=O (stereo not given)	–	–	–	–	–	4.2 µM	–	5.76 µM	–	5.69 µM	–	> 10 µM	–	> 10 µM	–	5.63 µM	8.4 µM	6.79 µM	–	–
